According to patent publication US7759351B2, “Oxazolidinone compounds, and compositions and methods related thereto” (Ferrer Internacional, S.A., priority 2005, dated 2010):
Converted amounts (≈) assume the structure as drawn. Where two headings read alike, the source gives them in different places. Values belong to the molecule of their own block, whether it stands above or below them.

How the values were obtained:
Staphylococcus = assay: Selective activity: geometric mean MIC in Staphylococcus; assay type: cell-based; conditions: for Geometric Mean MIC Staphylococcus / MIC: geometric mean over Staphylococcus strains; for Selectivity Enterococcus/Staphylococcus: ratio of geometric mean MIC Enterococcus to geometric mean MIC Staphylococcus
Enterococcus = assay: Selective activity: geometric mean MIC in Enterococcus; assay type: cell-based; conditions: geometric mean over Enterococcus strains
[1] = test system: S. aureus ATCC 25923 MS 319; assay: MIC, standard microdilution method (NCCLS M7-A5); assay type: cell-based, Staphylococcus aureus; conditions: for MIC: Staphylococcus aureus, ATCC25923, read-out: In vitro activities against bacteria, MIC
[2] = test system: S. aureus ATCC 43300 MR 214; assay: MIC, standard microdilution method (NCCLS M7-A5); assay type: cell-based, Staphylococcus aureus; conditions: for MIC: Staphylococcus aureus, ATCC43300, read-out: In vitro activities against bacteria, MIC
[3] = test system: S. epidermidis ATCC 12228 MR 11; assay: microbe, parasite or virus in culture; assay type: cell-based, Staphylococcus epidermidis; conditions: for MIC: Staphylococcus epidermidis, ATCC12228, read-out: In vitro activities against bacteria, MIC
[4] = test system: S. pneumoniae ATCC 49619 PR 215; assay: MIC, standard microdilution method (NCCLS M7-A5); assay type: cell-based, Streptococcus pneumoniae; conditions: for MIC: Streptococcus pneumoniae, ATCC49619, read-out: In vitro activities against bacteria, MIC
human MAO-A = target: T1, human MAO-A (Homo sapiens, UniProt P21397); assay: In vitro MAO-A enzymatic activity (kynuramine substrate, fluorescence); assay type: biochemical; conditions: compound at 10 μM
T1 construct: purchased Gentest, BD, USA; host or cells: SF9 insect cells (membranes)
T1 sequence (P21397 1-527): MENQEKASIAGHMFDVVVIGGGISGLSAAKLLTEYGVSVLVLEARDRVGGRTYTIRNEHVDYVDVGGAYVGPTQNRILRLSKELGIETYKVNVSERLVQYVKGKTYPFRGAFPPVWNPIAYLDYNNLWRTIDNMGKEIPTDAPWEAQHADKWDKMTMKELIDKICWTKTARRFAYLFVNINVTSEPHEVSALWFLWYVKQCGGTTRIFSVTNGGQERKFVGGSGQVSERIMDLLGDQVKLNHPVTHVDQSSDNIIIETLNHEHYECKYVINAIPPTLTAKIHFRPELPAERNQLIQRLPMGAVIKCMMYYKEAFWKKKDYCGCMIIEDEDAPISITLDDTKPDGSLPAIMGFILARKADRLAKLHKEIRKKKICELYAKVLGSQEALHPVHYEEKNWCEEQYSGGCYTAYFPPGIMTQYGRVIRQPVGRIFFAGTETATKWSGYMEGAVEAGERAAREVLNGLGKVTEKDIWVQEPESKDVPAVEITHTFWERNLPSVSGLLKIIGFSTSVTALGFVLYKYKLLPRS

human MAO-B = target: T2, human MAO-B (Homo sapiens, UniProt P27338); assay: In vitro MAO-B enzymatic activity (kynuramine substrate, fluorescence); assay type: biochemical; conditions: human MAO-B, compound at 1 μM
T2 construct: purchased Gentest, BD, USA; host or cells: SF9 insect cells (membranes)
T2 sequence (P27338 1-520): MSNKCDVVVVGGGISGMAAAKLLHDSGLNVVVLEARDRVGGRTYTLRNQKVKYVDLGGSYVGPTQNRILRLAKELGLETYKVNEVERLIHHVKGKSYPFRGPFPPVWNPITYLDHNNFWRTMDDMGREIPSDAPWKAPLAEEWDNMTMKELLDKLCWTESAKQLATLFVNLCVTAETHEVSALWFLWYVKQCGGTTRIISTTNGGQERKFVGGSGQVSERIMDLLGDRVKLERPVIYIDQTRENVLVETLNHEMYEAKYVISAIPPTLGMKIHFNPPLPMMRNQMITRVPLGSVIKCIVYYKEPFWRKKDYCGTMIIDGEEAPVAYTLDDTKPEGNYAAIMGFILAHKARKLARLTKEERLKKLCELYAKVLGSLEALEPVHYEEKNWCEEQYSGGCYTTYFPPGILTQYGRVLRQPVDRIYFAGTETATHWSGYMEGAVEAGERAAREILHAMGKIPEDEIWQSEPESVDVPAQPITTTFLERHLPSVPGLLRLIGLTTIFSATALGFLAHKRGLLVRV

[5] = test system: Moxorella, Pasteurella and Bacteroides spp.; conditions: background literature; cited from earlier work
[6] = S. pneumoniae ATCC 49619 PR 215
[7] = listed as Comparartive Example 1
[8] = S. epidermidis ATCC 12228 MR 11

MIC (Staphylococcus): 0.6 mg/L (≈ 1.21 µM)
Geometric Mean MIC Enterococcus (Enterococcus): 5.7 mg/L
SMILES: COc1ccc2cc(C(=O)NC[C@H]3CN(c4ccc(N5CCOCC5)c(F)c4)C(=O)O3)c(C)nc2c1 [Ex. 1, 7-methoxy-2-methyl-N-[[(5S)-3-[3-fluoro-4-(4-morpholinyl)phenyl]-2-oxo-5-oxazolidinyl]methyl]-3-quinolinecarboxamide]
Selectivity Enterococcus/Staphylococcus (Staphylococcus): 9.5

Geometric Mean MIC Staphylococcus (Staphylococcus): 5.7 mg/L
Geometric Mean MIC Enterococcus (Enterococcus; [7]): 4.8 mg/L
SMILES: COc1ccc2cc(C(=O)NC[C@H]3CN(c4ccc(N5CCOCC5)c(F)c4)C(=O)O3)c(C)nc2c1 [compound 1, reference compound]
Selectivity Enterococcus/Staphylococcus (Staphylococcus; [7]): 0.8

MIC (Staphylococcus): 0.4 mg/L (≈ 0.747 µM)
Geometric Mean MIC Enterococcus (Enterococcus): 5.7 mg/L
SMILES: COc1ccc2cc(C(=O)NC[C@H]3CN(c4ccc(N5CCN(C(C)=O)CC5)c(F)c4)C(=O)O3)c(C)nc2c1 [Ex. 3, 7-methoxy-2-methyl-N-[[(5S)-3-[3-fluoro-4-(4′-acetyl-4-piperazinyl)-phenyl]-2-oxo-5-oxazolidinyl]methyl]-3-quinolinecarboxamide]
Selectivity Enterococcus/Staphylococcus (Staphylococcus): 14.3

Geometric Mean MIC Staphylococcus (Staphylococcus): 1.7 mg/L
Geometric Mean MIC Enterococcus (Enterococcus): 32 mg/L
SMILES: COc1ccc2cc(C(=O)NC[C@H]3CN(c4ccc(N5CCN(C(=O)C6=NNC(=O)CC6)CC5)c(F)c4)C(=O)O3)c(C)nc2c1 [Ex. 29]
Selectivity Enterococcus/Staphylococcus (Staphylococcus): 18.8

Geometric Mean MIC Staphylococcus (Staphylococcus): 12.7 mg/L
Geometric Mean MIC Enterococcus (Enterococcus): 3.4 mg/L
SMILES: O=C(NC[C@H]1CN(c2ccc(N3CCOCC3)c(F)c2)C(=O)O1)c1coc2ccccc12 [Comparative Example 2, reference compound]
Selectivity Enterococcus/Staphylococcus (Staphylococcus): 0.3

More lines, now with the values behind:

SMILES: C=CC(=O)N1CCN(c2ccc(N3C[C@H](CNC(=O)c4cc5ccc(OC)cc5nc4C)OC3=O)cc2F)CC1 [Ex. 24]
Geometric Mean MIC Staphylococcus (Staphylococcus): 0.6 mg/L
Selectivity Enterococcus/Staphylococcus (Staphylococcus): 27.0
Geometric Mean MIC Enterococcus (Enterococcus): 16 mg/L

SMILES: COc1ccc2cc(C(=O)NC[C@H]3CN(c4ccc(N5CCS(=O)(=O)CC5)c(F)c4)C(=O)O3)c(C)nc2c1 [Ex. 8, 7-methoxy-2-methyl-N-[[(5S)-3-[3-fluoro-4-(1,1-dioxothiomorpholin-4-yl)-phenyl]-2-oxo-5-oxazolidinyl]methyl]-3-quinolinecarboxamide]
MIC ([1]; S. aureus ATCC 25923 MS 319): 2 mg/L (≈ 3.69 µM)
MIC ([2]; S. aureus ATCC 43300 MR 214): 2 mg/L (≈ 3.69 µM)
MIC [3]: 2 mg/L (≈ 3.69 µM)
MIC [4, 6]: 1 mg/L (≈ 1.84 µM)

SMILES: O=C(NC[C@H]1CN(c2ccc(N3CCOCC3)c(F)c2)C(=O)O1)c1cc2cc([N+](=O)[O-])ccc2o1 [Comparative Example 3, reference compound]
Geometric Mean MIC Staphylococcus (Staphylococcus): 0.8 mg/L
Selectivity Enterococcus/Staphylococcus (Staphylococcus): 0.9
Geometric Mean MIC Enterococcus (Enterococcus): 0.7 mg/L

SMILES: COc1ccc2nc(C)c(C(=O)NC[C@H]3CN(c4ccc(N5CCOCC5)c(F)c4)C(=O)O3)cc2c1 [Ex. 18]
MIC (Staphylococcus): 1 mg/L (≈ 2.02 µM)
Selectivity Enterococcus/Staphylococcus (Staphylococcus): 8.0
Geometric Mean MIC Enterococcus (Enterococcus): 8 mg/L

SMILES: COc1ccc2cc(C(=O)NC[C@H]3CN(c4ccc(N5CCN(C(=O)CO)CC5)c(F)c4)C(=O)O3)c(C)nc2c1 [Ex. 35]
Geometric Mean MIC Staphylococcus (Staphylococcus): 0.6 mg/L
Selectivity Enterococcus/Staphylococcus (Staphylococcus): 8.3
Geometric Mean MIC Enterococcus (Enterococcus): 5.0

SMILES: CC(=O)NC[C@H]1CN(c2ccc(N3CCOCC3)c(F)c2)C(=O)O1 [Linezolid, N-[[(5S)-3-[3-fluoro-4-(4-morpholinyl)phenyl]-2-oxo-5-oxazolidinyl]methyl]acetamide, reference compound]
MIC ([1]; S. aureus ATCC 25923 MS 319): 2 mg/L (≈ 5.93 µM)
MIC ([2]; S. aureus ATCC 43300 MR 214): 1 mg/L (≈ 2.96 µM)
MIC [3]: 1 mg/L (≈ 2.96 µM)
MIC [4, 6]: 2 mg/L (≈ 5.93 µM)
inhibition at 10 µM (human MAO-A; read-out: MAO-A % inh (10 μM)): 41%
inhibition at 1 µM (human MAO-B; read-out: MAO-B % inh (1 μM)): 62%
MIC [5]: 2 to 8 mg/L

SMILES: COc1ccc2cc(C(=O)NC[C@H]3CN(c4ccc(N5CCN(C(=O)c6c[nH]cn6)CC5)c(F)c4)C(=O)O3)c(C)nc2c1 [Ex. 31]
In vitro activities against bacteria, MIC ([1]; S. aureus ATCC 25923 MS 319): 4.00 mg/L
In vitro activities against bacteria, MIC ([2]; S. aureus ATCC 43300 MR 214): 2.00 mg/L
In vitro activities against bacteria, MIC [3, 8]: 2.00 mg/L
In vitro activities against bacteria, MIC [4, 6]: 4.00 mg/L

SMILES: COc1ccc2cc(C(=O)NC[C@H]3CN(c4ccc(N5CCN(C(=O)C6CC6)CC5)c(F)c4)C(=O)O3)c(C)nc2c1 [Ex. 34]
In vitro activities against bacteria, MIC ([1]; S. aureus ATCC 25923 MS 319): 0.50 mg/L
In vitro activities against bacteria, MIC ([2]; S. aureus ATCC 43300 MR 214): 0.50 mg/L
In vitro activities against bacteria, MIC [3, 8]: 0.50 mg/L
In vitro activities against bacteria, MIC [4, 6]: 0.50 mg/L
MAO-A % inh (10 μM) (human MAO-A): 7%
MAO-B % inh (1 μM) (human MAO-B): 8%
Geometric Mean MIC Staphylococcus (Staphylococcus): 0.4 mg/L
Selectivity Enterococcus/Staphylococcus (Staphylococcus): 100
Geometric Mean MIC Enterococcus (Enterococcus): 40.3 mg/L

SMILES: COc1ccc2cc(C(=O)NC[C@H]3CN(c4ccc(N5CCN(C(=O)c6cccnc6)CC5)c(F)c4)C(=O)O3)c(C)nc2c1 [Ex. 42]
In vitro activities against bacteria, MIC [1]: 1.00 mg/L
In vitro activities against bacteria, MIC [2]: 0.06 mg/L
In vitro activities against bacteria, MIC [3]: 0.5 mg/L
In vitro activities against bacteria, MIC [4]: 1.00 mg/L
MAO-A % inh (10 μM) (human MAO-A): 5%
MAO-B % inh (1 μM) (human MAO-B): 7%
